Measurements: patent US8808746B2, “Sustained-release microspheres and methods of making and using same” (Fresenius Kabi USA, LLC, priority 2004, dated 2014)

Experiment: pH versus accelerated stability of octreotide acetate solutions (HPLC)
Assay type: physicochemical
Settings: 70° C.
Description: For this study, 0.2 mg/mL octreotide acetate solutions in different pH buffers (buffer ionic strength=˜50 mM) were incubated at 70° C. At various designated times, the concentration of octreotide was determined using HPLC. The degradation rate versus time (Kobs) was calculated and plotted.

[1] = pH 4.0, Arginine-Acetate, 0 hours
[2] = pH 4.0, Arginine-Acetate, 24 hours
[3] = pH 4.0, Arginine-Acetate, 48 hours
[4] = pH 4.0, Arginine-Acetate, 69 hours
[5] = pH 5.0, Arginine-Acetate, 0 hours
[6] = pH 5.0, Arginine-Acetate, 24 hours
[7] = pH 5.0, Arginine-Acetate, 48 hours
[8] = pH 5.0, Arginine-Acetate, 69 hours

## C[C@@H](O)[C@@H]1NC(=O)[C@H](CCCCN)NC(=O)[C@@H](Cc2c[nH]c3ccccc23)NC(=O)[C@H](Cc2ccccc2)NC(=O)[C@@H](NC(=O)[C@H](N)Cc2ccccc2)CSSC[C@@H](C(=O)N[C@H](CO)[C@@H](C)O)NC1=O [Octreotide, octreotide acetate]
Between a pH of 3.0 and 5.0
  stability in solution: relatively stable
pH 2.0, Glycine-HCl, 0 hours
  Octreotide Assay: 0.1965 mg/mL
  Octreotide Assay (% Stability): (100.00) %
pH 2.0, Glycine-HCl, 24 hours
  Octreotide Assay: 0.1651 mg/mL
  Octreotide Assay (% Stability): (84.02) %
pH 2.0, Glycine-HCl, 48 hours
  Octreotide Assay: 0.1425 mg/mL
  Octreotide Assay (% Stability): (72.52) %
pH 2.0, Glycine-HCl, 69 hours
  Octreotide Assay: 0.1303 mg/mL
  Octreotide Assay (% Stability): (66.31) %
pH 3.0, Glycine-HCl, 0 hours
  Octreotide Assay: 0.2214 mg/mL
  Octreotide Assay (% Stability): (100.00) %
pH 3.0, Glycine-HCl, 24 hours
  Octreotide Assay: 0.2136 mg/mL
  Octreotide Assay (% Stability): (96.48) %
pH 3.0, Glycine-HCl, 48 hours
  Octreotide Assay: 0.2050 mg/mL
  Octreotide Assay (% Stability): (92.59) %
pH 3.0, Glycine-HCl, 69 hours
  Octreotide Assay: 0.2004 mg/mL
  Octreotide Assay (% Stability): (90.51) %
[1]
  Octreotide Assay: 0.1911 mg/mL
  Octreotide Assay (% Stability): (100.00) %
[2]
  Octreotide Assay: 0.1860 mg/mL
  Octreotide Assay (% Stability): (97.33) %
[3]
  Octreotide Assay: 0.1784 mg/mL
  Octreotide Assay (% Stability): (93.35) %
[4]
  Octreotide Assay: 0.1741 mg/mL
  Octreotide Assay (% Stability): (91.10) %
[5]
  Octreotide Assay: 0.2027 mg/mL
  Octreotide Assay (% Stability): (100.00) %
[6]
  Octreotide Assay: 0.1975 mg/mL
  Octreotide Assay (% Stability): (97.43) %
[7]
  Octreotide Assay: 0.1848 mg/mL
  Octreotide Assay (% Stability): (91.17) %
[8]
  Octreotide Assay: 0.1819 mg/mL
  Octreotide Assay (% Stability): (89.74) %
pH 6.0, Phosphate, 0 hours
  Octreotide Assay: 0.1934 mg/mL
  Octreotide Assay (% Stability): (100.00) %
pH 6.0, Phosphate, 24 hours
  Octreotide Assay: 0.1738 mg/mL
  Octreotide Assay (% Stability): (89.87) %
pH 6.0, Phosphate, 48 hours
  Octreotide Assay: 0.1434 mg/mL
  Octreotide Assay (% Stability): (74.15) %
pH 6.0, Phosphate, 69 hours
  Octreotide Assay: 0.1276 mg/mL
  Octreotide Assay (% Stability): (65.98) %
pH 7.0, Phosphate, 0 hours
  Octreotide Assay: 0.2047 mg/mL
  Octreotide Assay (% Stability): (100.00) %
pH 7.0, Phosphate, 24 hours
  Octreotide Assay: 0.1638 mg/mL
  Octreotide Assay (% Stability): (80.02) %
pH 7.0, Phosphate, 48 hours
  Octreotide Assay: 0.1247 mg/mL
  Octreotide Assay (% Stability): (60.92) %
pH 7.0, Phosphate, 69 hours
  Octreotide Assay: 0.1056 mg/mL
  Octreotide Assay (% Stability): (51.59) %
pH 8.0, Phosphate, 0 hours
  Octreotide Assay: 0.1906 mg/mL
  Octreotide Assay (% Stability): (100.00) %
pH 8.0, Phosphate, 24 hours
  Octreotide Assay: 0.0793 mg/mL
  Octreotide Assay (% Stability): (41.61) %
pH 8.0, Phosphate, 48 hours
  Octreotide Assay: 0.0369 mg/mL
  Octreotide Assay (% Stability): (19.36) %
pH 8.0, Phosphate, 69 hours
  Octreotide Assay: 0.0280 mg/mL
  Octreotide Assay (% Stability): (14.69) %
